# According to ChEMBL document CHEMBL2074511, “Molecular cloning and pharmacological characterization of rat multidrug resistance protein 1 (mrp1)” (Drug Metab Dispos, 2003):
# Tested on: Multidrug resistance-associated protein 1
# Test: TP_TRANSPORTER: drug resistance in MRP1-expressing HEK293 cells
# Assay type: functional, cell-based
# Conditions: human
row,Compound,Activity
1,COc1cccc2c1C(=O)c1c(O)c3c(c(O)c1C2=O)C[C@@](O)(C(=O)CO)C[C@@H]3O[C@H]1C[C@H](N)[C@H](O)[C@H](C)O1 [DOXORUBICIN],substrate []
2,COc1cccc2c1C(=O)c1c(O)c3c(c(O)c1C2=O)C[C@@](O)(C(=O)CO)C[C@@H]3O[C@H]1C[C@H](N)[C@@H](O)[C@H](C)O1 [EPIRUBICIN],substrate []
3,COc1cc([C@@H]2c3cc4c(cc3[C@@H](O[C@@H]3O[C@@H]5CO[C@@H](C)O[C@H]5[C@H](O)[C@H]3O)[C@H]3COC(=O)[C@H]23)OCO4)cc(OC)c1O [ETOPOSIDE],substrate []
4,CC[C@]1(O)C[C@H]2CN(CCc3c([nH]c4ccccc34)[C@@](C(=O)OC)(c3cc4c(cc3OC)N(C=O)[C@H]3[C@@](O)(C(=O)OC)[C@H](OC(C)=O)[C@]5(CC)C=CCN6CC[C@]43[C@@H]65)C2)C1 [VINCRISTINE],substrate []
